Experimental data from ChEMBL document CHEMBL5506020 (J Med Chem, 2024).
The source made the active and inactive calls. The calls are words filed in the database; no cut-off is given here.

What was measured:
MV4-11 [1] = assay: Antiproliferative activity against human MV4-11 cells incubated for 120 hrs by Cell-Titer Glo assay; settings: MV4-11, 120 h
[2] = target: Protein cereblon/Histone acetyltransferase p300 (Homo sapiens) (UniProt Q09472+Q96SW2); assay: PROTAC activity at CRBN/p300 in human MV4-11 cells assessed as p300 degradation at 10 to 50 nM incubated for 24 hrs by Western blotting analysis; assay type: cell-based; settings: dose 10-50 nM
Sequence of Protein cereblon/Histone acetyltransferase p300 (Homo sapiens) (Q09472 2-2414 limits assumed): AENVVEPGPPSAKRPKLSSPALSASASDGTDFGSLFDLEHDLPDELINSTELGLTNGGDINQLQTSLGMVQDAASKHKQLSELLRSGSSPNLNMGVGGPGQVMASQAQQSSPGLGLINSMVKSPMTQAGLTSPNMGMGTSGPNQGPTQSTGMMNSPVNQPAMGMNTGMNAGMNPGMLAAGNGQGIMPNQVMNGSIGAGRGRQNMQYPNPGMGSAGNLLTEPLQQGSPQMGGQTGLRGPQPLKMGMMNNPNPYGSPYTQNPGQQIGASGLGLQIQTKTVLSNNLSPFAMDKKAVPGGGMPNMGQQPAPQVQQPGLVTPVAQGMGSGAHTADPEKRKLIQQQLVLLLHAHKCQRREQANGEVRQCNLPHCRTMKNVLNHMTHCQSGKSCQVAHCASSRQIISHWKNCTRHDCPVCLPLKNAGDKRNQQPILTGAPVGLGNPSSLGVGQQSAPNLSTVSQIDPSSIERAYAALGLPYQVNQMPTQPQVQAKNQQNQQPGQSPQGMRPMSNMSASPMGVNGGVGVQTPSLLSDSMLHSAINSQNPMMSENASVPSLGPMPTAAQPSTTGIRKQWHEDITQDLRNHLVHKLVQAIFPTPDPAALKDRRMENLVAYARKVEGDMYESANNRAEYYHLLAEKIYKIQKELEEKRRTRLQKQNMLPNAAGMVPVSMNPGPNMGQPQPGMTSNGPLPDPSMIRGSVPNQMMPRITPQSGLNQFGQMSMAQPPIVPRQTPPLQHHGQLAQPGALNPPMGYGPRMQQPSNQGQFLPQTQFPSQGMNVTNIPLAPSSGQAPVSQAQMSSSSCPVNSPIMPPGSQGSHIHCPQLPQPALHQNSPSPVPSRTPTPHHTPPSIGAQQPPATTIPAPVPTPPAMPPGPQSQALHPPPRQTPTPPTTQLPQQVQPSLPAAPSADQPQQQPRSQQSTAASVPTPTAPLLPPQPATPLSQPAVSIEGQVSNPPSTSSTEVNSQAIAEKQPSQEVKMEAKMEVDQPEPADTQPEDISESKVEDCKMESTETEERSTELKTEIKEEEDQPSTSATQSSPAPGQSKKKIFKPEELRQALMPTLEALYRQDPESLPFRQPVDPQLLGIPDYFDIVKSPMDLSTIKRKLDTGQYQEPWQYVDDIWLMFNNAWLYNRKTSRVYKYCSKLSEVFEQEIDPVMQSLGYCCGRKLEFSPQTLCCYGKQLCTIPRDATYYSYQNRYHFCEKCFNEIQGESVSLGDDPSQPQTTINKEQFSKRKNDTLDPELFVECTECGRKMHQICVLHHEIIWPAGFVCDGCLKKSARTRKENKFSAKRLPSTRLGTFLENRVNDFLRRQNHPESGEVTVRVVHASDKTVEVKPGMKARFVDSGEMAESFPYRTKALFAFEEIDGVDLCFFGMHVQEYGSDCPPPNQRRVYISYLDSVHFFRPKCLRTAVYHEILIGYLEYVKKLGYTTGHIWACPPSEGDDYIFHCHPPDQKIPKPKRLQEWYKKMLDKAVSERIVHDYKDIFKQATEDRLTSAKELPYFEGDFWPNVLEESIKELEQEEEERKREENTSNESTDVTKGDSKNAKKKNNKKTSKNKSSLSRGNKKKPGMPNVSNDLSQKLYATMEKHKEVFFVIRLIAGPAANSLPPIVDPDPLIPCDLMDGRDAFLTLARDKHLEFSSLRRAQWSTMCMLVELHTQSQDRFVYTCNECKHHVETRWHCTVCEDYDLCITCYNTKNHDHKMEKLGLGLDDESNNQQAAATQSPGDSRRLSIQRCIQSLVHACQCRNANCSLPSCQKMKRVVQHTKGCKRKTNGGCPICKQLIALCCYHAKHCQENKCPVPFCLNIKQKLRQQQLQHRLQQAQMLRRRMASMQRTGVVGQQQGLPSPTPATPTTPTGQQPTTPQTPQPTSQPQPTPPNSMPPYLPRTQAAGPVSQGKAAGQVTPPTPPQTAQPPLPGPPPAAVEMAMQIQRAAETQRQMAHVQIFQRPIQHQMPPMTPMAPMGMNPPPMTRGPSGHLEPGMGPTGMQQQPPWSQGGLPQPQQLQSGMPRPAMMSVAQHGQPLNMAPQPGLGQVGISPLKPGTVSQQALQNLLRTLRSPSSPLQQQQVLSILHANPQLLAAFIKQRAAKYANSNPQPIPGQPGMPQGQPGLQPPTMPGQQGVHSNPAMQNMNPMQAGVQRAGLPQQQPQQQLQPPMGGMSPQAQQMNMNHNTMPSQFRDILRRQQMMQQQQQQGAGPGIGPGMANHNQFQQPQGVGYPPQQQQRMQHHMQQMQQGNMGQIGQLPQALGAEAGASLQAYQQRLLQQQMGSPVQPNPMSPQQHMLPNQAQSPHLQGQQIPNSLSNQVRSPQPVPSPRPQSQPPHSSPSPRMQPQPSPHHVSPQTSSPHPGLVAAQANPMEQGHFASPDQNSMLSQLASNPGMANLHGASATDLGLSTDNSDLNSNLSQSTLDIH
Sequence of Protein cereblon/Histone acetyltransferase p300 (Homo sapiens) (Q96SW2 whole entry partner): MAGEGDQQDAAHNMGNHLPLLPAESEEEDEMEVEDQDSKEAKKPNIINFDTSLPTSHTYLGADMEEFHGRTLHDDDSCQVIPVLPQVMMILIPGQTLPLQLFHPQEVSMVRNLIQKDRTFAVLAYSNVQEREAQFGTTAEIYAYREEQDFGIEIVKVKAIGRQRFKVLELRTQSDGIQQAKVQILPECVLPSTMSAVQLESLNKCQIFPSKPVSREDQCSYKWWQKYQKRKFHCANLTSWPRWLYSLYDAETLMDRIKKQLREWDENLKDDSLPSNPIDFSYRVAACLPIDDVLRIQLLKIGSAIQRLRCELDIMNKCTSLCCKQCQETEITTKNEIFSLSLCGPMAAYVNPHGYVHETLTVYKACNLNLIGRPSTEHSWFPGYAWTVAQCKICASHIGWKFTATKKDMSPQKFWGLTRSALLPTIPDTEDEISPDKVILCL

MOLM-13 [3] = assay: Antiproliferative activity against human MOLM-13 cells incubated for 72 hrs by Cell-Titer Glo assay; settings: MOLM-13, 72 h
[4] = Antiproliferative activity against human MOLM16 cells incubated for 72 hrs by Cell-Titer Glo assay; settings: MOLM16, 72 h
THP-1 = assay: Antiproliferative activity against human THP-1 cells
EOL1 = assay: Antiproliferative activity against human EOL1 cells
KG-1 = assay: Antiproliferative activity against human KG-1 cells
MV4-11 [5] = assay: Antitumor activity against human MV4-11 cells xenografted in NOD-SCID mouse assessed as tumor growth inhibition at 10 mg/kg, po QD for 2 weeks; assay type: functional; settings: MV4-11, 336 h, read-out: TGI
MV4-11 [6] = assay: Downregulation of c-Myc protein level in human MV4-11 cells at 50 nM incubated for 24 hrs by Western blotting analysis; assay type: functional, cell-based
MOLM-16 = assay: Downregulation of c-Myc protein level in human MOLM16 cells at 50 nM incubated for 24 hrs by Western blotting analysis; assay type: functional, cell-based
MOLM-13 [7] = assay: Downregulation of c-Myc protein level in human MOLM-13 cells at 50 nM incubated for 24 hrs by Western blotting analysis; assay type: functional, cell-based

Row | Structure (SMILES) | IC50 (MV4-11 [1]) [µM] | Activity [2] | also measured
1 | Cc1noc(C)c1-c1ccc2c(c1)nc([C@@H]1CCCC(=O)N1c1ccc(F)c(F)c1)n2C1CCN(CC(=O)Nc2ccc(CCNc3cccc4c3C(=O)N(C3CCC(=O)NC3=O)C4=O)cc2)CC1 (some centres not stated) | 0.132 | Active | –
2 | Cc1noc(C)c1-c1ccc2c(c1)nc([C@@H]1CCCC(=O)N1c1ccc(F)c(F)c1)n2C1CCN(CC(=O)Nc2ccc(-c3ccc(CNc4cccc5c4C(=O)N(C4CCC(=O)N(C)C4=O)C5=O)cc3)nc2)CC1 (some centres not stated) | 0.0867 | – | IC50 (MOLM-13 [3]): > 1 µM; IC50 [4]: 0.2 µM
3 | Cc1noc(C)c1-c1ccc2c(c1)nc([C@@H]1CCCC(=O)N1c1ccc(F)c(F)c1)n2C1CCN(CC(=O)NCCCNc2ccc3c(c2)C(=O)N(C2CCC(=O)NC2=O)C3=O)CC1 (some centres not stated) | 2.64 | inactive | –
4 | Cc1noc(C)c1-c1ccc2c(c1)nc([C@@H]1CCCC(=O)N1c1ccc(F)c(F)c1)n2C1CCN(CC(=O)NCCCCCCNc2cccc3c2C(=O)N(C2CCC(=O)NC2=O)C3=O)CC1 (some centres not stated) | 0.405 | Active | –
5 | Cc1noc(C)c1-c1ccc2c(c1)nc([C@@H]1CCCC(=O)N1c1ccc(F)c(F)c1)n2C1CCN(C)CC1 | 0.165 | – | –
6 | Cc1noc(C)c1-c1ccc2c(c1)nc([C@@H]1CCCC(=O)N1c1ccc(F)c(F)c1)n2C1CCN(CC(=O)NCCCCCNc2ccc3c(c2)C(=O)N(C2CCC(=O)NC2=O)C3=O)CC1 (some centres not stated) | 1.01 | inactive | –
7 | CO[C@H]1CC[C@H](n2c([C@@H]3CCCC(=O)N3c3ccc(F)c(F)c3)nc3cc(-c4c(C)noc4C)ccc32)CC1 [INOBRODIB] | 0.0204 | – | IC50 (MOLM-13 [3]): 0.103 µM; IC50 [4]: 0.0129 µM; IC50 (THP-1): < 3 µM; IC50 (EOL1): < 3 µM; IC50 (KG-1): < 3 µM; inhibition in vivo at 10 mg/kg (MV4-11 [5]): 65%
8 | Cc1noc(C)c1-c1ccc2c(c1)nc([C@@H]1CCCC(=O)N1c1ccc(F)c(F)c1)n2C1CCN(CC(=O)N2CCC(Nc3cccc4c3C(=O)N(C3C(=O)CCNC3=O)C4=O)CC2)CC1 (some centres not stated) | 1.76 | – | –
9 | Cc1noc(C)c1-c1ccc2c(c1)nc([C@@H]1CCCC(=O)N1c1ccc(F)c(F)c1)n2C1CCN(CC(=O)N2CCC(CN3CCN(c4cccc5c4C(=O)N(C4CCC(=O)NC4=O)C5=O)CC3)CC2)CC1 (some centres not stated) | 0.266 | inactive | –
10 | Cc1noc(C)c1-c1ccc2c(c1)nc([C@@H]1CCCC(=O)N1c1ccc(F)c(F)c1)n2C1CCN(CC(=O)N2CCN(CCNc3cccc4c3C(=O)N(C3CCC(=O)NC3=O)C4=O)CC2)CC1 (some centres not stated) | 0.223 | inactive | –
11 | Cc1noc(C)c1-c1ccc2c(c1)nc([C@@H]1CCCC(=O)N1c1ccc(F)c(F)c1)n2C1CCN(CC(=O)NCCOCCOCCNc2ccc3c(c2)C(=O)N(C2CCC(=O)NC2=O)C3=O)CC1 (some centres not stated) | 6.07 | inactive | –
12 | Cc1noc(C)c1-c1ccc2c(c1)nc([C@@H]1CCCC(=O)N1c1ccc(F)c(F)c1)n2C1CCN(CC(=O)NCCOCCOCCNc2cccc3c2C(=O)N(C2CCC(=O)NC2=O)C3=O)CC1 (some centres not stated) | 1.68 | – | –
13 | Cc1noc(C)c1-c1ccc2c(c1)nc([C@@H]1CCCC(=O)N1c1ccc(F)c(F)c1)n2C1CCN(CC(=O)NCCCCCNc2cccc3c2C(=O)N(C2CCC(=O)NC2=O)C3=O)CC1 (some centres not stated) | 0.464 | Active | –
14 | Cc1noc(C)c1-c1ccc2c(c1)nc([C@@H]1CCCC(=O)N1c1ccc(F)c(F)c1)n2C1CCN(CC(=O)N2CCC(N3CCC(Nc4cccc5c4C(=O)N(C4CCC(=O)NC4=O)C5=O)CC3)CC2)CC1 (some centres not stated) | 0.112 | – | –
15 | Cc1noc(C)c1-c1ccc2c(c1)nc([C@@H]1CCCC(=O)N1c1ccc(F)c(F)c1)n2C1CCN(CC(=O)NCCCC#Cc2cccc3c2C(=O)N(C2CCC(=O)NC2=O)C3=O)CC1 (some centres not stated) | 1.72 | – | –
16 | Cc1noc(C)c1-c1ccc2c(c1)nc([C@@H]1CCCC(=O)N1c1ccc(F)c(F)c1)n2C1CCN(CC(=O)Nc2ccc(CC3CCN(c4cccc5c4C(=O)N(C4CCC(=O)NC4=O)C5=O)CC3)cc2)CC1 (some centres not stated) | 0.273 | Active | –
17 | Cc1noc(C)c1-c1ccc2c(c1)nc([C@@H]1CCCC(=O)N1c1ccc(F)c(F)c1)n2C1CCN(CC(=O)NCCCCNc2ccc3c(c2)C(=O)N(C2CCC(=O)NC2=O)C3=O)CC1 (some centres not stated) | 2.21 | inactive | –
18 | Cc1noc(C)c1-c1ccc2c(c1)nc([C@@H]1CCCC(=O)N1c1ccc(F)c(F)c1)n2C1CCN(CC(=O)NCCOCCNc2cccc3c2C(=O)N(C2CCC(=O)NC2=O)C3=O)CC1 (some centres not stated) | 1.9 | – | –
19 | Cc1noc(C)c1-c1ccc2c(c1)nc([C@@H]1CCCC(=O)N1c1ccc(F)c(F)c1)n2C1CCN(CC(=O)NCCCCCCNc2ccc3c(c2)C(=O)N(C2CCC(=O)NC2=O)C3=O)CC1 (some centres not stated) | 1.02 | inactive | –

Row | Structure (SMILES) | IC50 (MV4-11 [1]) [µM] | Activity [2] | also measured
20 | Cc1noc(C)c1-c1ccc2c(c1)nc([C@@H]1CCCC(=O)N1c1ccc(F)c(F)c1)n2C1CCN(CC(=O)NCCCCCCCCCCNc2cccc3c2C(=O)N(C2CCC(=O)NC2=O)C3=O)CC1 (some centres not stated) | 0.606 | Active | –
21 | Cc1noc(C)c1-c1ccc2c(c1)nc([C@@H]1CCCC(=O)N1c1ccc(F)c(F)c1)n2C1CCN(CC(=O)Nc2ccc(C3CCN(c4cccc5c4C(=O)N(C4CCC(=O)NC4=O)C5=O)CC3)cc2)CC1 (some centres not stated) | 0.0301 | Active | –
22 | Cc1noc(C)c1-c1ccc2c(c1)nc([C@@H]1CCCC(=O)N1c1ccc(F)c(F)c1)n2C1CCN(CC(=O)NCCCCCCCNc2cccc3c2C(=O)N(C2CCC(=O)NC2=O)C3=O)CC1 (some centres not stated) | 0.525 | Active | –
23 | Cc1noc(C)c1-c1ccc2c(c1)nc([C@@H]1CCCC(=O)N1c1ccc(F)c(F)c1)n2C1CCN(CC(=O)Nc2ccc(-c3ccc(CNc4cccc5c4C(=O)N(C4CCC(=O)NC4=O)C5=O)cc3)cc2)CC1 (some centres not stated) | 0.0057 | – | IC50 (MOLM-13 [3]): 0.137 µM; IC50 [4]: 0.0144 µM; Activity (MV4-11 [6]): Active; Activity (MOLM-16): Active; Activity (MOLM-13 [7]): Active
24 | Cc1noc(C)c1-c1ccc2c(c1)nc([C@@H]1CCCC(=O)N1c1ccc(F)c(F)c1)n2C1CCN(CC(=O)NCCC2CCN(c3cccc4c3C(=O)N(C3CCC(=O)NC3=O)C4=O)CC2)CC1 (some centres not stated) | 1.17 | – | –
25 | Cc1noc(C)c1-c1ccc2c(c1)nc([C@@H]1CCCC(=O)N1c1ccc(F)c(F)c1)n2C1CCN(CC(=O)NCc2ccc(CNc3cccc4c3C(=O)N(C3CCC(=O)NC3=O)C4=O)cc2)CC1 (some centres not stated) | 1.22 | Active | –
26 | Cc1noc(C)c1-c1ccc2c(c1)nc([C@@H]1CCCC(=O)N1c1ccc(F)c(F)c1)n2C1CCN(CC(=O)NCCC#Cc2cccc3c2C(=O)N(C2CCC(=O)NC2=O)C3=O)CC1 (some centres not stated) | 1.8 | – | –
27 | Cc1noc(C)c1-c1ccc2c(c1)nc([C@@H]1CCCC(=O)N1c1ccc(F)c(F)c1)n2C1CCN(CC(=O)N2CCN(c3cccc4c3C(=O)N(C3CCC(=O)NC3=O)C4=O)CC2)CC1 (some centres not stated) | 1.7 | – | –
28 | Cc1noc(C)c1-c1ccc2c(c1)nc([C@@H]1CCCC(=O)N1c1ccc(F)c(F)c1)n2C1CCN(CC(=O)NC2CCN(c3cccc4c3C(=O)N(C3CCC(=O)NC3=O)C4=O)CC2)CC1 (some centres not stated) | 1.74 | – | –
29 | Cc1noc(C)c1-c1ccc2c(c1)nc([C@@H]1CCCC(=O)N1c1ccc(F)c(F)c1)n2C1CCN(CC(=O)NCCCCCCCCNc2cccc3c2C(=O)N(C2CCC(=O)NC2=O)C3=O)CC1 (some centres not stated) | 0.218 | Active | –
30 | Cc1noc(C)c1-c1ccc2c(c1)nc([C@@H]1CCCC(=O)N1c1ccc(F)c(F)c1)n2C1CCN(CC(=O)NCCOCCNc2ccc3c(c2)C(=O)N(C2CCC(=O)NC2=O)C3=O)CC1 (some centres not stated) | 1.7 | inactive | –
31 | Cc1noc(C)c1-c1ccc2c(c1)nc([C@@H]1CCCC(=O)N1c1ccc(F)c(F)c1)n2C1CCN(CC(=O)NCC#Cc2cccc3c2C(=O)N(C2CCC(=O)NC2=O)C3=O)CC1 (some centres not stated) | 1.15 | – | –
32 | Cc1noc(C)c1-c1ccc2c(c1)nc([C@@H]1CCCC(=O)N1c1ccc(F)c(F)c1)n2C1CCN(CC(=O)Nc2cnc(-c3ccc(CNc4cccc5c4C(=O)N(C4CCC(=O)N(C)C4=O)C5=O)cc3)nc2)CC1 (some centres not stated) | 0.0442 | – | IC50 (MOLM-13 [3]): > 1 µM; IC50 [4]: 0.0458 µM
33 | Cc1noc(C)c1-c1ccc2c(c1)nc([C@@H]1CCCC(=O)N1c1ccc(F)c(F)c1)n2C1CCN(CC(=O)NCCNc2ccc3c(c2)C(=O)N(C2CCC(=O)NC2=O)C3=O)CC1 (some centres not stated) | 1.8 | inactive | –
34 | Cc1noc(C)c1-c1ccc2c(c1)nc([C@@H]1CCCC(=O)N1c1ccc(F)c(F)c1)n2C1CCN(CC(=O)NCCOCCOCCOCCNc2ccc3c(c2)C(=O)N(C2CCC(=O)NC2=O)C3=O)CC1 (some centres not stated) | > 10 | inactive | –
35 | Cc1noc(C)c1-c1ccc2c(c1)nc([C@@H]1CCCC(=O)N1c1ccc(F)c(F)c1)n2C1CCN(CC(=O)NCC2CCN(c3cccc4c3C(=O)N(C3CCC(=O)NC3=O)C4=O)CC2)CC1 (some centres not stated) | 0.98 | – | –
36 | Cc1noc(C)c1-c1ccc2c(c1)nc([C@@H]1CCCC(=O)N1c1ccc(F)c(F)c1)n2C1CCN(CC(=O)Nc2ccc(CNc3cccc4c3C(=O)N(C3CCC(=O)NC3=O)C4=O)cc2)CC1 (some centres not stated) | 0.0848 | Active | –
37 | Cc1noc(C)c1-c1ccc2c(c1)nc([C@@H]1CCCC(=O)N1c1ccc(F)c(F)c1)n2C1CCN(CC(=O)NCCOCCOCCOCCNc2cccc3c2C(=O)N(C2CCC(=O)NC2=O)C3=O)CC1 (some centres not stated) | 2.02 | – | –
